Like-named read-outs stand apart in the source and are kept apart here.
Test system: forty-four human cancer cell lines
Assay: Cell proliferation assay (ATPlite, 72 hours) in the 44 cell line Oncolines panel
Type: cell-based
Conditions: Homo sapiens

With CN(C)C/C=C/C(=O)Nc1cc2c(Nc3ccc(F)c(Cl)c3)ncnc2cc1O[C@H]1CCOC1 [afatinib] as the compound, how does the IC50 (4-4 cell, read-out: cell panel IC50, J82) read?
The IC50 was 3340 nM.

What about the IC50 (4-4 cell, read-out: cell panel IC50, PA-1) of the same compound?
Its IC50 is 1900 nM.

What about the IC50 (4-4 cell, read-out: cell panel IC50, SJCRH30) of the same compound?
Its IC50 is 2440 nM.

What about the IC50 (4-4 cell, read-out: cell panel IC50, SR) of the same compound?
Its IC50 is 988 nM.

And the IC50 (769-P, read-out: cell panel IC50, 769-P)?
Its IC50 is 2230 nM.

And the IC50 (786-0, read-out: cell panel IC50, 786-0)?
The IC50 was 2720 nM.

What about the IC50 (A 172, read-out: cell panel IC50, A-172) of the same compound?
The IC50 was 2950 nM.

What about the IC50 (A204, read-out: cell panel IC50, A-204) of the same compound?
Its IC50 is 2220 nM.

And the IC50 (A498, read-out: cell panel IC50, A-498)?
Its IC50 is 2730 nM.

What about the IC50 (A549, read-out: cell panel IC50, A-549) of the same compound?
The IC50 was 3160 nM.

What about the IC50 (A-375, read-out: cell panel IC50, A375) of the same compound?
Its IC50 is 1280 nM.

And the IC50 (A-427, read-out: cell panel IC50, A-427)?
The IC50 was 2900 nM.

And the IC50 (ACHN, read-out: cell panel IC50, ACHN)?
The IC50 was 297 nM.

And the IC50 (AN3-CA, read-out: cell panel IC50, AN3 CA)?
The IC50 was 2780 nM.

What about the IC50 (AU565, read-out: cell panel IC50, AU-565) of the same compound?
Its IC50 is 13 nM.

What about the IC50 (BT-20, read-out: cell panel IC50, BT-20) of the same compound?
The IC50 was 4350 nM.

And the IC50 (BT-549, read-out: cell panel IC50, BT-549)?
Its IC50 is 3270 nM.

And the IC50 (BXPC-3, read-out: cell panel IC50, BxPC-3)?
Its IC50 is 3690 nM.

What about the IC50 (C-33-A, read-out: cell panel IC50, C-33 A) of the same compound?
Its IC50 is 21 nM.

What about the IC50 (CAL-27, read-out: cell panel IC50, CAL 27) of the same compound?
The IC50 was 434 nM.

And the IC50 (CCRF-CEM, read-out: cell panel IC50, CCRF-CEM)?
Its IC50 is 1280 nM.

What about the IC50 (DLD-1, read-out: cell panel IC50, DLD-1) of the same compound?
The IC50 was 1710 nM.

And the IC50 (FaDu, read-out: cell panel IC50, FaDu)?
Its IC50 is 3.42 nM.

What about the IC50 (HCT-15, read-out: cell panel IC50, HCT-15) of the same compound?
Its IC50 is 1550 nM.

And the IC50 (HCT-116, read-out: cell panel IC50, HCT-116)?
Its IC50 is 935 nM.

What about the IC50 (Hs-578T, read-out: cell panel IC50, Hs 578T) of the same compound?
Its IC50 is 3380 nM.

What about the IC50 (Jurkat E6.1, read-out: cell panel IC50, Jurkat E6.1) of the same compound?
The IC50 was 870 nM.

What about the IC50 (K562, read-out: cell panel IC50, K-562) of the same compound?
The IC50 was 3270 nM.

What about the IC50 (LS174T, read-out: cell panel IC50, LS 174T) of the same compound?
The IC50 was 1310 nM.

And the IC50 (LoVo, read-out: cell panel IC50, LoVo)?
Its IC50 is 2070 nM.

And the IC50 (MG-63, read-out: cell panel IC50, MG-63)?
Its IC50 is 2830 nM.

And the IC50 (MOLT-4, read-out: cell panel IC50, MOLT-4)?
The IC50 was 922 nM.

What about the IC50 (MeWo, read-out: cell panel IC50, MeWo) of the same compound?
The IC50 was 3770 nM.

And the IC50 (NCI-H82, read-out: cell panel IC50, NCI-H82)?
Its IC50 is 2230 nM.

And the IC50 (NCI-H460, read-out: cell panel IC50, NCI-H460)?
The IC50 was 2640 nM.

And the IC50 (OVCAR-3, read-out: cell panel IC50, OVCAR-3)?
Its IC50 is 2100 nM.

And the IC50 (RPMI-7951, read-out: cell panel IC50, RPMI-7951)?
The IC50 was 3580 nM.

And the IC50 (SHP77, read-out: cell panel IC50, SHP-77)?
The IC50 was 3660 nM.

What about the IC50 (SK-N-AS, read-out: cell panel IC50, SK-N-AS) of the same compound?
Its IC50 is 2230 nM.

What about the IC50 (SW48, read-out: cell panel IC50, SW48) of the same compound?
Its IC50 is 4170 nM.

What about the IC50 (SW480, read-out: cell panel IC50, SW480) of the same compound?
Its IC50 is 3640 nM.

And the IC50 (SW-620, read-out: cell panel IC50, SW620)?
The IC50 was 3360 nM.

What about the IC50 (U2OS, read-out: cell panel IC50, U-2 OS) of the same compound?
Its IC50 is 2570 nM.

And the IC50 (U-87 MG, 72 h, read-out: IC50 in cell proliferation assay (table S5 cellpanel data))?
Its IC50 is 5020 nM.
